Where “and” joins values, the source holds several entries; their conditions need not be identical. Equal entries are not always repeated.
Legend:
Format in all cases: in vivo, human
[1] = DEX concentration by radioimmunoassay after DST; details: mean
Method: (§1) The two dexamethasone suppression tests (DST) were performed as described previously (Huizenga et al, J.Clin.Endocrinol Metab.1998; 83(1): 47-54). In brief, venous blood was obtained in the morning between 8 and 9 am after an overnight fast for serum cortisol and insulin measurements. Participants were instructed to ingest a tablet of 1 mg (and 0.25 mg, respectively) DEX at 11.00 pm. The next morning fasting blood was drawn by venapuncture at the same time as the previous morning. To check for compliance and possible abnormalities in the metabolism of DEX, the DEX concentration was also measured in a radioimmunoassay using antiserum obtained from IgG Corporation (Nashville, Tenn.). Intra- and interassay variations were below 8.5% and 14.2% respectively.

[2] = test system: feedback sensitivity of the HPA-axis; test: Dexamethasone suppression test (DST): serum cortisol after DEX; details: mean
From the text: A total of 202 human subjects participated in the study. Their age varied between 53 and 82 years ([…] with mean ages of 67.7±0.6 and 65.9±0.6 years, respectively). They were living in a suburb of Rotterdam, The Netherlands. These subjects were participants in the Rotterdam Study, a population-based cohort study (7983 subjects) of the determinants of chronic disabling diseases in the elderly and were selected at random. Subjects with acute, psychiatric or endocrine diseases, including diabetes mellitus treated with medication were not invited. Compared to all participants of the Rotterdam study, there were no differences in age and gender distribution and cardiovascular risk factors. The subjects gave their written consent to participate in the study, which received the approval of the Medical Ethics Committee of the Erasmus University Medical School. In order to get more information about the individual variability of the feedback sensitivity of the HPA-axis all 202 subjects were invited for a second DST with a lower dose DEX (0.25 mg) two and a half years later. 149 subjects agreed to participate in this second test (72 men and 77 women).
as §1
(§2) Serum cortisol concentrations were determined using RIA-kits obtained from Diagnostics Products Corporation (Los Angeles, Calif.). Intra- and interassay variations were below 8.0% and 9.5% respectively. Circulating insulin and cortisol binding globulin concentrations were determined using commercially available ratioimmunoassays (Medgenix Diagnostics, Brussels, Belgium). Intra- and interassay variations were 8.0% and 13.7% respectively. Estradiol, androstenedione and DHEAS concentrations were determined using RIA-kits obtained from Diagnostics Products Corporation. Intra- and interassay variations; estradiol: 7.0% and 8.1% androstenedione: 8.3% and 9.2%, DHEAS: 5.3% and 7.0% SHBG was assayed with an commercially available immunoradiometric assay (Diagnostics Products Corporation; intra- and interassay variations were 3.6% and 6.9% respectively). Testosterone was measured with a non-commercial radioimmunoassay (intra- and interassay variations 3.6% and 6.9%). Commercially available immunoradiometric assays were used for the measurement of IGF-BP1 (Diagnostic System Laboratories Inc.; intra- and interassay variations 4.0% and 6.0%).

[3] = Fasting serum insulin after DEX administration (DST); details: for Post DEX insulin / Δ insulin: mean
Method: as §1, §2

[4] = Fasting glucose after DEX administration (DST); details: 0.25 mg DEX
Method: as §1
Glucose, total cholesterol, HDL-chlesterol and triglycerides were measured using standard laboratory methods. Low density lipoprotein (LDL)-cholesterol was calculated using the following formula: LDL-cholesterol=total cholesterol−((triglycerides/5)+HDL-cholesterol).

[5] = 0.25 mg DEX, ER22/23EK-carriers (n = 13), second examination
[6] = 0.25 mg DEX, non-carriers (n = 136), second examination

C[C@@H]1C[C@H]2[C@@H]3CCC4=CC(=O)C=C[C@]4(C)[C@@]3(F)[C@@H](O)C[C@]2(C)[C@@]1(O)C(=O)CO [DEX, dexamethasone]
DEX concentration ([1]; morning after 0.25 mg DEX, ER22/23EK-carriers (n = 13)): 2.88 nmol/L
DEX concentration ([1]; morning after 0.25 mg DEX, non-carriers (n = 136)): 2.85 nmol/L
DEX concentration ([1]; morning after 1 mg DEX, ER22/23EK-carriers (n = 18)): 6.63 nmol/L
DEX concentration ([1]; morning after 1 mg DEX, non-carriers (n = 184)): 7.32 nmol/L
PostDEX cortisol [2, 5]: 267.5 nmol/L
Δ cortisol [2, 5]: 259.7 nmol/L
PostDEX cortisol [2, 6]: 259.5 nmol/L
Δ cortisol [2, 6]: 285.8 nmol/L
PostDEX cortisol ([2]; 1 mg DEX oral at 11.00 pm, next morning fasting, ER22/23EK-carriers (n = 18), first examination): 57.9 nmol/L
PostDEX cortisol ([2]; 1 mg DEX oral at 11.00 pm, next morning fasting, non-carriers (n = 184), first examination): 33.3 nmol/L
Δ cortisol ([2]; cortisol suppression in reaction to 1 mg DEX, ER22/23EK-carriers (n = 18)): 504.9 nmol/L
Δ cortisol ([2]; cortisol suppression in reaction to 1 mg DEX, non-carriers (n = 184)): 481.4 nmol/L
Post DEX insulin ([3]; 0.25 mg DEX, ER22/23EK-carriers (n = 10), second examination): 10.0 mU/l
Post DEX insulin ([3]; 0.25 mg DEX, non-carriers (n = 105), second examination): 14.2 mU/l
insulin level after DEX administration ([3]; 0.25 mg DEX, total group of 115 subjects, 14.7 before, p=0.02): 13.9±0.50 mU/L
Post DEX insulin ([3]; 1 mg DEX, ER22/23EK-carriers (n = 15), first examination): 14.4 mU/l
insulin concentration after DEX administration ([3]; 1 mg DEX, all 182 subjects together, 11.5±5.15 before, p<0.001): 17.2±8.41 mU/L
Post DEX insulin ([3]; 1 mg DEX, non-carriers (n = 167), first examination): 17.4 mU/l
Δ insulin ([3]; change in response to 0.25 mg DEX, ER22/23EK-carriers (n = 10)): 0.01 mU/l
Δ insulin ([3]; change in response to 0.25 mg DEX, non-carriers (n = 105)): −0.92 mU/l
Δ insulin ([3]; change in response to 1 mg DEX, ER22/23EK-carriers (n = 15)): 5.5±1.3 mU/l and 5.5 mU/l
Δ insulin ([3]; change in response to 1 mg DEX, non-carriers (n = 167)): 5.7±0.6 mU/l and 5.7 mU/l
glucose concentration after the 0.25 mg DST ([4]; ER22/23EK-carriers): 5.3 ± 0.17 mmol/L
glucose concentration after DST ([4]; all subjects, 5.6±0.06 before, p=0.004): 5.5 ± 0.05 mmol/L
glucose concentration after the 0.25 mg DST ([4]; non-carriers): 5.5 ± 0.05 mmol/L
